# From patent US20240352016A1, “A CYCLIN-DEPENDENT KINASE INHIBITOR” (TAIZHOU EOC PHARMA CO., LTD., priority 2021, published 2024)
# Structures can show the parent of a compound that is named as a salt.
# Target: T1, CDK7/Cyclin H/MAT1 (Homo sapiens, UniProt P50613)
# T1 construct: made in house; host or cells: insect cell
# Test: CDK kinase activity mobility shift assay (MSA)
# Type: biochemical
# Details: not given
# Method: Human CDKs, cyclins and other partner proteins were expressed in insect cell, purified individually, reconstituted and then purified to homogeneity before being used for kinase activity assay.
# Kinase activity of CDKs were determined by mobility shift assay (MSA), in which the formation of a phosphorylated fluorescence-labelled peptide in reaction mixture was monitored through capillary electrophoresis in a microfluidic environment. […] The mixtures were incubated at 27° C. for 40 min before being quenched with 4 μl 80 mM EDTA, then read on a LabChip EZ Reader II (Caliper Life Science). IC50 of compound for CDKs was calculated by Prism (GraphPad) using a four-parameter nonlinear curve fit.
# T1 sequence (P50613 whole entry): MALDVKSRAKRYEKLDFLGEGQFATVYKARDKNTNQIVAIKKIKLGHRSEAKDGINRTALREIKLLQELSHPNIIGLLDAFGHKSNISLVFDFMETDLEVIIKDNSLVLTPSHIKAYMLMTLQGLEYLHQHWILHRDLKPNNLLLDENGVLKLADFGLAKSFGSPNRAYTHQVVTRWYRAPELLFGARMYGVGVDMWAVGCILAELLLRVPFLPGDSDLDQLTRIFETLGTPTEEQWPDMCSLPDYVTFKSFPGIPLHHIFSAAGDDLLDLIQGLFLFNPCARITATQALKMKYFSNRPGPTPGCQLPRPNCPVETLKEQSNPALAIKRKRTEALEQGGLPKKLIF
# T1 sequence (P51946 whole entry partner): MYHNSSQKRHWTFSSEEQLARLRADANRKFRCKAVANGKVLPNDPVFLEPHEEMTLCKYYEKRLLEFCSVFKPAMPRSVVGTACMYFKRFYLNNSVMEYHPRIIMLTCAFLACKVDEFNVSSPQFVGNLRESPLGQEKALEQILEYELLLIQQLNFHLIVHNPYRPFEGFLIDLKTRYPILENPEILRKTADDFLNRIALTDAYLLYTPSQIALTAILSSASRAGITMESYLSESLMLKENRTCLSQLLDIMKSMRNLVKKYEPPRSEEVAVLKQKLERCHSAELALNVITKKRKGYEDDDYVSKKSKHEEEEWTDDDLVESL
# T1 sequence (P51948 whole entry partner): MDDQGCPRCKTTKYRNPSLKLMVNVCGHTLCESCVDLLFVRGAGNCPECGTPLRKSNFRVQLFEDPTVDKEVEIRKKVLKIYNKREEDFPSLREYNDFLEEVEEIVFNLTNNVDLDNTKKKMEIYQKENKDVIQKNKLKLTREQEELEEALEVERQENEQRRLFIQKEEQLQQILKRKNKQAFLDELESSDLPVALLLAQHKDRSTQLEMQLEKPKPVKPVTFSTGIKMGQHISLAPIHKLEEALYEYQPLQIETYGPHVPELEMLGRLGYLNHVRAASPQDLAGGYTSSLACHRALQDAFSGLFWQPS
row,Compound,IC50 [nM]
1,"CC(C)n1cnc2c(NCc3ccccc3-n3cccn3)nc(N3CCNCC3)nc21 [Compound I-28, N-(2-(1H-pyrazol-1-yl)benzyl)-9-isopropyl-2-(piperazin-1-yl)-9H-purin-6-amine]",< 100

# Same assay, conditions: The CDK may be CDK7; mobility shift assay, 2 mM ATP, 3 nM CDK/Cyclin, 27° C. for 40 min; read-out: IC50 (CDK inhibition)
row,IC50 [nM],Compound
1,100 to 500,"CC(C)n1cnc2c(NCc3ccccc3-n3cccn3)nc(N3CCC(O)CC3)nc21 [Compound I-37, 1-(6-((2-(1H-pyrazol-1-yl)benzyl)amino)-9-isopropyl-9H-purin-2-yl)piperidin-4-ol]"
2,< 100,"CC(C)c1n[nH]c2c(NCc3ccccc3-n3cccn3)nc(N3CCC(N)CC3)nc12 [II-1, N-(2-(1H-pyrazol-1-yl)benzyl)-5-(4-aminopiperidin-1-yl)-3-isopropyl-1H-pyrazolo[4,3-d]pyrimidin-7-amine hydrochloride]"
3,100 to 500,"CC(C)n1cnc2c(NCc3ccccc3-n3cccn3)nc(N3CCC(O)(CN(C)C)CC3)nc21 [Compound I-29, 1-(6-((2-(1H-pyrazol-1-yl)benzyl)amino)-9-isopropyl-9H-purin-2-yl)-4-((dimethylamino)methyl)piperidin-4-ol]"
4,100 to 500,"CC(C)n1cnc2c(NCc3ccccc3-n3cccn3)nc(NCC3(O)CCNCC3)nc21 [Compound I-14, 4-(((6-((2-(1H-pyrazol-1-yl)benzyl)amino)-9-isopropyl-9H-purin-2-yl)amino)methyl)piperidin-4-ol trihydrochloride]"
5,< 100,"CC(C)c1n[nH]c2c(NCc3ccccc3-n3cccn3)nc(NC3CCNCC3)nc12 [II-2, N7-(2-(1H-pyrazol-1-yl)benzyl)-3-isopropyl-N5-(piperidin-4-yl)-1H-pyrazolo[4,3-d]pyrimidine-5,7-diamine]"
6,< 100,"CC(C)n1cnc2c(NCc3ccccc3-n3cccn3)nc(N3CCC(N(C)C)CC3)nc21 [Compound I-26, N-(2-(1H-pyrazol-1-yl)benzyl)-2-(4-(dimethylamino)piperidin-1-yl)-9-isopropyl-9H-purin-6-amine]"
7,100 to 500,"CC(C)n1cnc2c(NCc3ccccc3-n3cccn3)nc(N[C@H]3CCCNC3)nc21 [Compound I-13, (S)-N6-(2-(1H-pyrazol-1-yl)benzyl)-9-isopropyl-N2-(piperidin-3-yl)-9H-purine-2,6-diamine]"
8,< 100,"CC(C)n1cnc2c(NCc3ccccc3-n3ccc(C(C)(C)O)n3)nc(NC3CCNCC3)nc21 [Compound I-17, 2-(1-(2-(((9-isopropyl-2-(piperidin-4-ylamino)-9H-purin-6-yl)amino)methyl)phenyl)-1H-pyrazol-3-yl)propan-2-ol]"
9,> 1000,"CC(C)n1cnc2c(NCc3ccccc3-n3cccn3)nc(N3CCC(O)(Cn4cc(C(F)(F)F)cn4)CC3)nc21 [Compound I-35, 1-(6-((2-(1H-pyrazol-1-yl)benzyl)amino)-9-isopropyl-9H-purin-2-yl)-4-((4-(trifluoromethyl)-1H-pyrazol-1-yl)methyl)piperidin-4-ol]"
10,< 100,"CC(C)n1cnc2c(NCc3c(Cl)cccc3-n3ccc(C(C)(C)O)n3)nc(NC3CCNCC3)nc21 [Compound I-18, 2-[1-[3-chloro-2-[[[9-isopropyl-2-(4-piperidylamino)purin-6-yl]amino]methyl]phenyl]pyrazol-3-yl]propan-2-ol]"
11,< 100,"CC(C)n1cnc2c(NCc3c(F)cccc3-n3cccn3)nc(N3CCC(N)CC3)nc21 [Compound I-24, 2-(4-aminopiperidin-1-yl)-N-(2-fluoro-6-(1H-pyrazol-1-yl)benzyl)-9-isopropyl-9H-purin-6-amine hydrochloride]"
12,100 to 500,"CC(C)n1cnc2c(NCc3ccccc3-n3cccn3)nc(N3CCC(CN(C)C)CC3)nc21 [Compound I-32, N-(2-(1H-pyrazol-1-yl)benzyl)-2-(4-((dimethylamino)methyl)piperidin-1-yl)-9-isopropyl-9H-purin-6-amine]"
13,< 100,"CC(C)n1cnc2c(NCc3ccccc3-n3cccn3)nc(N3CCC[C@@H](N)C3)nc21 [Compound I-11, (R)—N-(2-(1H-pyrazol-1-yl)benzyl)-2-(3-aminopiperidin-1-yl)-9-isopropyl-9H-purin-6-amine]"
